Data set [1] deals with zebrafish embryos treated with DOX (cardiomyopathy phenotype). The experiment in a line: Zebrafish doxorubicin cardiomyopathy model (rescue from phenotype). Format: in vivo. Particulars: for rescue from the doxorubicin cardiomyopathy phenotype: zebrafish co-treated with doxorubicin, inhibitors at 10 μM; for protection against doxorubicin cardiotoxicity in the zebrafish model: co-treatment with doxorubicin. How it is done: Zebrafish embryos at 30 hours post-fertilization were treated with DOX at 100 μM in 96-well plates as previously described (Liu et al., 2014). Tested compounds were dissolved in DMSO and added at concentrations ranging from 3 nM to 10 μM (n=6 fish per dose; <1% DMSO v/v). The cardiomyopathy phenotype (decreased cardiac contraction, pericardial edema, and decreased tail blood flow) was assessed under light microscopy (5× magnification) at 40 hours post-treatment (hpt). Percent rescue from the cardiomyopathy phenotype was calculated for each concentration tested. Zebrafish were considered to be rescued from DOX-induced cardiomyopathy if all three features of the phenotype were absent. For the tested compounds, each dose-response experiment was repeated three times.
Dose-response curves were constructed using Prism (GraphPad).
Zebrafish were treated with DOX and assessed for the development of the cardiomyopathy phenotype (decreased cardiac contraction, pericardial edema, and decreased tail blood flow). Zebrafish were considered to be rescued if all three features of the cardiomyopathy phenotype were absent upon co-treatment with a tested compound. Referring to FIGS. 3-9, data are depicted as mean+/−standard error (n=6 fish per dose; each experiment performed in triplicate).

Another data set has as its system HL-1 cardiomyocytes. The experiment in a line: Cultured HL-1 cardiomyocyte model (DOX-induced apoptosis, viability). It is filed as cell-based, mouse. To be noted: Mus musculus, HL-1; doxorubicin 5 μM, viability after 18 hours, CellTiter-Glo; read-out: EC50 in HL-1 Cells. How it is done: The cardiomyocyte cell line HL-1 derived from mouse atrial tumor was a gift from W. Claycomb. Cells were cultured as previously published (Claycomb et al., 1998) and treated with doxorubicin 5 μM with or without the tested compounds at a concentration up to 50 μM. Viability was assessed after 18 hours of using a CellTiter-Glo Luminescent assay from Promega. Each dose-response experiment was repeated three times.
Compounds were tested in HL-1 cultured cardiomyocytes to assess for efficacy in preventing DOX-induced apoptosis. Cell viability was assessed as described in the materials and methods section.

Another data set deals with LOC100332237. The experiment in a line: Zebrafish proteomics. Format: in vivo. To be noted: zebrafish embryos, visnagin 20 μM.
A further data set relates to rad9a. The experiment in a line: Zebrafish proteomics. Particulars: zebrafish embryos, visnagin 20 μM. Format: in vivo.
In another data set the test system is sqstm1. The experiment in a line: Zebrafish proteomics. Format: in vivo. To be noted: zebrafish embryos, visnagin 20 μM.
The next data set deals with cyp1c1. The experiment in a line: Zebrafish proteomics. Format: in vivo. Particulars: zebrafish embryos, visnagin 20 μM. As to the method: (§1) The proteomics analysis was carried out as described in the material and methods section. All protein abundance values are normalized to DMSO-treated control zebrafish. * p<0.05 compared to the DMSO control using the Benjamini-Hochberg method of correcting for multiple hypotheses.

Another data set concerns cyp1b1. The experiment in a line: Zebrafish proteomics. Format: in vivo. Particulars: zebrafish embryos, visnagin 20 μM. How it is done: as §1
Data set [2] deals with CYP1A. The experiment in a line: Zebrafish proteomics. Format: in vivo. To be noted: zebrafish embryos, visnagin 20 μM. How it is done: as §1
The test system of the next data set is gstp2. The experiment in a line: Zebrafish proteomics. Format: in vivo. To be noted: zebrafish embryos, visnagin 20 μM.
For data set [3], the target named is CYP1A (Homo sapiens (Human), UniProt P05177). The experiment in a line: CYP inhibition assay, human liver microsomes. Format: biochemical. How it is done:
(§2) CYP inhibition experiments were performed by Cerep Panlabs (Eurofins) using human liver microsomes and the following substrates: phenacetin 10 μM (CYP1A), buproprion 100 μM (CYP2B6), paclitaxel 10 μM (CYP2C8), diclofenac 10 μM (CYP 2C9), omeprazole 0.5 μM (CYP2C19), dextromethorphan 5 μM (CYP2D6), and testosterone 50 μM (CYP3A). Metabolites of each substrate were measured using LC-MS/MS. Mean percent inhibition was calculated using the following reference inhibitors: furafylline (CYP1A), clopidogrel (CYP2B6), montelukast (CYP2C8), sulfaphenazole (CYP2C9), oxybutynin (CYP2C19), quinidine (CYP2D6), and ketoconazole (CYP3A). […] All concentrations were tested in duplicate to obtain the final results.
(§3) The ability of the tested compounds to inhibit a panel of CYP enzymes in vitro was assessed using a series of human liver microsome assays.

The next data set deals with CYP2D6 (Homo sapiens (Human), UniProt P10635). The experiment in a line: CYP inhibition assay, human liver microsomes. Format: biochemical. Particulars: dextromethorphan 5 μM, reference quinidine. As to the method: as §2, §3
Background: Liver microsomes are vesicles of endoplasmic reticulum, rich in cytochrome P450 enzymes.

The target of the next data set is CYP2C19 (Homo sapiens (Human), UniProt P33261). The experiment in a line: CYP inhibition assay, human liver microsomes. Format: biochemical. Particulars: omeprazole 0.5 μM, reference oxybutynin. As to the method: as §2, §3
A further data set concerns the target CYP3A (Homo sapiens, UniProt P08684). The experiment in a line: CYP inhibition assay, human liver microsomes. To be noted: testosterone 50 μM, reference ketoconazole. Format: biochemical. How it is done: as §2, §3
The target of a further data set is CYP2C9 (Homo sapiens (Human), UniProt P11712). The experiment in a line: CYP inhibition assay, human liver microsomes. Format: biochemical. To be noted: diclofenac 10 μM, reference sulfaphenazole. As to the method: as §2, §3
Another data set addresses CYP2C8 (Homo sapiens (Human), UniProt P10632). The experiment in a line: CYP inhibition assay, human liver microsomes. Format: biochemical. Particulars: paclitaxel 10 μM, reference montelukast. As to the method: as §2, §3
For another data set, the system named is thbs1b. The experiment in a line: Zebrafish proteomics. Format: in vivo. To be noted: zebrafish embryos, visnagin 20 μM.
The next data set relates to slc2a1a. The experiment in a line: Zebrafish proteomics. It is filed as in vivo. Particulars: zebrafish embryos, visnagin 20 μM.
In the next data set the test system is dhrs13l1. The experiment in a line: Zebrafish proteomics. It is filed as in vivo. To be noted: zebrafish embryos, visnagin 20 μM.
The test system of a further data set is zebrafish embryos. The experiment in a line: Zebrafish toxicity in the absence of doxorubicin (TD50). To be noted: without doxorubicin. How it is done:
Dose-response curves were constructed using Prism (GraphPad). Raw data representing percent rescue at each dose was log-transformed, and EC50 values were calculated using nonlinear regression analysis. The median toxic dose (TD50) was defined for each compound by assessing for pericardial edema, non-specific deformities, and death in the absence of doxorubicin treatment (data not shown). Concentrations at and above the TD50 (toxic dose) were excluded from dose-response curves.

Where [4] appears, read: Danio rerio, rescue from DOX (100 μM) cardiomyopathy phenotype, 40 hours post-treatment, read-out: EC50 is zebrafish.
Setting [5] is: Danio rerio, rescue from DOX cardiomyopathy phenotype, read-out: EC50 in the zebrafish DOX model.

As a reminder, the pEC50 is the negative decadic logarithm of the EC50, by convention in mol/L. One may read the pIC50 as the negative decadic logarithm of the IC50, by convention in mol/L. Read a low pIC50 as a large IC50.

pEC50, pIC50: −log10 of the molar value. Like-named read-outs stand apart in the source and are kept apart here.

Sequence of CYP1A (Homo sapiens (Human), UniProt P05177) (P05177 whole entry): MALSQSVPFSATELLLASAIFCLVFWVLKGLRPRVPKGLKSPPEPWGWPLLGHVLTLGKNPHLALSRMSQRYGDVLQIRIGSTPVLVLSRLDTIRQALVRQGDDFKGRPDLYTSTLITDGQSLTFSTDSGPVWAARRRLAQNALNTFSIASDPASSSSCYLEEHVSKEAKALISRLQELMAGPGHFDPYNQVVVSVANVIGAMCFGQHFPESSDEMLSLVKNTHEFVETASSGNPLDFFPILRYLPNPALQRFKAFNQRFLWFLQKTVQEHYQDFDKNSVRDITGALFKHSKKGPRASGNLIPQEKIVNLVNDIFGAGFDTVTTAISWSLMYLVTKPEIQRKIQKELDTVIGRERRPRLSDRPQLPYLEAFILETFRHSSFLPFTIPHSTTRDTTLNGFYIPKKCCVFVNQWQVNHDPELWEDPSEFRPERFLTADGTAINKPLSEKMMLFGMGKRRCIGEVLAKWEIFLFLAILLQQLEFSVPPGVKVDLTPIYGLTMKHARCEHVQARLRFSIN
Sequence of CYP3A (P08684 2-503 limits assumed): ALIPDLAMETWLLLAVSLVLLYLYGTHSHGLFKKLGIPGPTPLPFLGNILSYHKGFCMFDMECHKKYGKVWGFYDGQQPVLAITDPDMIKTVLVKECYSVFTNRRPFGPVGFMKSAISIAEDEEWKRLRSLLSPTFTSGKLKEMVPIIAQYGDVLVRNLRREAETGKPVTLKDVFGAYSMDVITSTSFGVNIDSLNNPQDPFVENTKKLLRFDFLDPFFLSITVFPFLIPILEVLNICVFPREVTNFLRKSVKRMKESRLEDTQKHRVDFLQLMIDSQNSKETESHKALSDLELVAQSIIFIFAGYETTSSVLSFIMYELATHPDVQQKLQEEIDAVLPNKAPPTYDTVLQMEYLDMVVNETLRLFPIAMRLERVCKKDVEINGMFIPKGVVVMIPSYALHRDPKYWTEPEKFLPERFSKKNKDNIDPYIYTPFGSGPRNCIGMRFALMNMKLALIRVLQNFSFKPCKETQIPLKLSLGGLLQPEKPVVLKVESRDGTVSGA
Sequence of CYP2C9 (P11712 whole entry): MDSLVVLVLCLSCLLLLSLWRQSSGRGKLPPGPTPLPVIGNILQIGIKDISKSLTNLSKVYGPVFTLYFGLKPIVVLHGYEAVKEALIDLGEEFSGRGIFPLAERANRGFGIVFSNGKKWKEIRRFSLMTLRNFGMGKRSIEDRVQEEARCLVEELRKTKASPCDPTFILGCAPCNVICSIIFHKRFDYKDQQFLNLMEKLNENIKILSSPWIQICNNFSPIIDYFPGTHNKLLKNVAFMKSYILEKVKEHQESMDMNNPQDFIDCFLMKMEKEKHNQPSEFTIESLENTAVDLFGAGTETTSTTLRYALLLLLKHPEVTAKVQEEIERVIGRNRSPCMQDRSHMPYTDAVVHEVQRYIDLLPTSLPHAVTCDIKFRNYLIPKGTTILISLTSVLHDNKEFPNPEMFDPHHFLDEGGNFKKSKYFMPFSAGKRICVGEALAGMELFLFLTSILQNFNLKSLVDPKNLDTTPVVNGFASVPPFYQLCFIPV
Sequence of CYP2C19 (P33261 whole entry): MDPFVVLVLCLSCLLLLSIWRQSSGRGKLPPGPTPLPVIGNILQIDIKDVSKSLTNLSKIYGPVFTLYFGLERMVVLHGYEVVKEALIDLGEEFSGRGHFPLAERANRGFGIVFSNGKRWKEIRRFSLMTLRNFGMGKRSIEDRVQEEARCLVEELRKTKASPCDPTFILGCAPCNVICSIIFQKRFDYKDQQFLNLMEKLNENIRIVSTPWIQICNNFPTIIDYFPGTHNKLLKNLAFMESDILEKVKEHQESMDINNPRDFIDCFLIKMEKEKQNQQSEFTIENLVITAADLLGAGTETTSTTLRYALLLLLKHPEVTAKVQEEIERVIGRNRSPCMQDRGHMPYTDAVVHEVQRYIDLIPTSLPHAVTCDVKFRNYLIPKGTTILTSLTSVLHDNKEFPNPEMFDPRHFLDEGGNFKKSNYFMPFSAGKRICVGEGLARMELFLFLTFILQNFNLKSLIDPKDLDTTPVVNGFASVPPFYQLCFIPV
Sequence of CYP2C8 (P10632 whole entry): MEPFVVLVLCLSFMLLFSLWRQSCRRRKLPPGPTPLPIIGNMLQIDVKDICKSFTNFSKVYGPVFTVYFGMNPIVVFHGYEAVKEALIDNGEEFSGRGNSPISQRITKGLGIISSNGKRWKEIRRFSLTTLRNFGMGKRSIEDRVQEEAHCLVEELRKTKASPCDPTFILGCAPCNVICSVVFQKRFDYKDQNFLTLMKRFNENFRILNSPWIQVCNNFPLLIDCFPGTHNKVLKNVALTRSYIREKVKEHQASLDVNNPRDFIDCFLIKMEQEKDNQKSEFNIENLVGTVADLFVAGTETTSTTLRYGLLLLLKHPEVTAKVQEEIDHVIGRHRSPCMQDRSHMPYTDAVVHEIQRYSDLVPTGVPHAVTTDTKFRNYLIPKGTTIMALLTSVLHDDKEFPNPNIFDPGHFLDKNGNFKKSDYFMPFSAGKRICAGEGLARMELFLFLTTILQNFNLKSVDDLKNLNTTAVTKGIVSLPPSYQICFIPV
Sequence of CYP2D6 (P10635 whole entry): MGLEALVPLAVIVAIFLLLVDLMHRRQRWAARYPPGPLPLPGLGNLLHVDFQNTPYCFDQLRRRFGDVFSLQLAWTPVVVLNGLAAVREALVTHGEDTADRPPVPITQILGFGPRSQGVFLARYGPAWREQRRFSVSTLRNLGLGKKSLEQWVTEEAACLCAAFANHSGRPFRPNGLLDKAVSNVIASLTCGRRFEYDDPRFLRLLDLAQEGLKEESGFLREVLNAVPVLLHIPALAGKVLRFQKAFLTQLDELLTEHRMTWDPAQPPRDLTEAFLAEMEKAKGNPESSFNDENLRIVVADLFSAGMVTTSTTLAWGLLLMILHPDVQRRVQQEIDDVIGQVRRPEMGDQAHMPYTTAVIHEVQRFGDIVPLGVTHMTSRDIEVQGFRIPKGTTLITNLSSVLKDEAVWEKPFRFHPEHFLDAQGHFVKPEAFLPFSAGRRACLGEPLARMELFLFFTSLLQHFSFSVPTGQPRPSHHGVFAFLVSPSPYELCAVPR

For `O=c1ccc2c(OCC3CO3)c3ccoc3cc2o1` (stereo not drawn) [Example 1, 4-(oxiran-2-ylmethoxy)-7H-furo[3,2-g]chromen-7-one], the pEC50 in [1] (setting [4]) is 7.28; in the data set on HL-1 cardiomyocytes it was less than 4.30.

For the molecule `Cc1ccccc1N=Nc1ccc(NC(=O)c2ccnn2C)c(C)c1` [CH-233191], in data set [1], the “rescue from the doxorubicin cardiomyopathy phenotype” value (“rescue” below) is reported as “significant rescue” and the “protection against doxorubicin cardiotoxicity in the zebrafish model” value (shortened to “protection”) is given as “prevented DOX cardiomyopathy”.

Regarding `CCSC(=O)NCCOc1c2ccoc2cc2oc(=O)ccc12` [Example 5, S-ethyl (2-((7-oxo-7H-furo[3,2-g]chromen-4-yl)oxy)ethyl)carbamothioate], the pEC50 in [1] (setting [4]) was 8.52.

For `CC(C)(C)OC(=O)NCCOc1c2ccoc2cc2oc(=S)ccc12` [Example 7, tert-butyl (2-((7-thioxo-7H-furo[3,2-g]chromen-4-yl)oxy)ethyl)carbamate], the pEC50 in data set [1] (setting [4]) was 6.59.

Consider `CC(C)(C)OC(=O)NCCOc1c2ccoc2cc2oc(=O)ccc12` [Example 3], for which the pEC50 in [1] (setting [4]) is 8.52; with HL-1 cardiomyocytes it was less than 4.30.

As to `O=c1cc(-c2ccccc2)oc2c1ccc1ccccc12` [α-naphthoflavone], the pEC50 in data set [1] (rescue from DOX (100 μM) cardiomyopathy phenotype, 40 hours post-treatment, read-out: EC50 is zebrafish) was 6.53. Besides, in data set [1], the “rescue” value was “significant rescue” and the “protection” value is on record as “prevented DOX cardiomyopathy”.

As for “4-ethoxy-7-methyl-5H-furo[3,2-g][1]-benzopyran-5-one [visnagin]”, the “Protein Abundance (Normalized to DMSO) LOC100332237” value in the data set with LOC100332237 (40 hours post-treatment) is 0.96. Further, in the data set with LOC100332237, the “DOX/DOX+ visnagin protein abundance ratio LOC100332237” value is 2.34. For the same molecule, in the data set on rad9a (40 hours post-treatment), the “Protein Abundance (Normalized to DMSO) rad9a” value is listed as 1.15. Also, in the data set on rad9a, the “DOX/DOX+ visnagin protein abundance ratio rad9a” value is given as 2.50. Moreover, in the data set with sqstm1 (40 hours post-treatment), the “Protein Abundance (Normalized to DMSO) sqstm1” value was found to be 0.98. In the data set on sqstm1, the “DOX/DOX+ visnagin protein abundance ratio sqstm1” value is given as 2.43. Also, the “Protein Abundance (Normalized to DMSO) cyp1c1” value with cyp1c1 (40 hours post-treatment) worked out at 0.80. Further, the “DOX/DOX+ visnagin protein abundance ratio cyp1c1” value in the data set with cyp1c1 is on record as 7.57. For the same molecule, in the data set on cyp1b1 (40 hours post-treatment), the “Protein Abundance (Normalized to DMSO) cyp1b1” value is reported as 0.94. In addition, in the data set on cyp1b1, the “DOX/DOX+ visnagin protein abundance ratio cyp1b1” value was found to be 5.31. For the same molecule, the “Protein Abundance (Normalized to DMSO) cyp1a” value in the data set on CYP1A [2] (40 hours post-treatment) turned out to be 0.84. The “DOX/DOX+ visnagin protein abundance ratio cyp1a” value in the data set with CYP1A [2] came to 7.03. Moreover, the “Protein Abundance (Normalized to DMSO) gstp2” value in the data set with gstp2 (40 hours post-treatment) was determined as 0.89. Further, in the data set with gstp2, the “DOX/DOX+ visnagin protein abundance ratio gstp2” value was 2.14. Besides, at CYP1A [3], the pIC50 is 6.62. The “Mean % Inhibition CYP2D6” value at CYP2D6 is listed as 9.9%. The “Mean % Inhibition CYP2C19” value at CYP2C19 was 1.2%. The “Mean % Inhibition CYP3A” value at CYP3A is on record as 4.2%. Also, at CYP2C9, the “Mean % Inhibition CYP2C9” value is recorded as 1.7%. Moreover, the “Mean % Inhibition CYP2C8” value at CYP2C8 came to 8.1%. Besides, in the data set on thbs1b (40 hours post-treatment), the “Protein Abundance (Normalized to DMSO) thbs1b” value turned out to be 0.89. Besides, the “DOX/DOX+ visnagin protein abundance ratio thbs1b” value in the data set on thbs1b amounted to 2.39. The “Protein Abundance (Normalized to DMSO) slc2a1a” value in the data set with slc2a1a (40 hours post-treatment) turned out to be 0.83. Also, the “DOX/DOX+ visnagin protein abundance ratio slc2a1a” value in the data set on slc2a1a stood at 2.23. The “Protein Abundance (Normalized to DMSO) dhrs13l1” value in the data set with dhrs13l1 (40 hours post-treatment) is reported as 0.89. In addition, the “DOX/DOX+ visnagin protein abundance ratio dhrs13l1” value in the data set with dhrs13l1 was 2.79.

Consider `COc1cc(C=Cc2ccc(OC)cc2OC)cc(OC)c1` [2,4,3′,5′-tetramethoxystilbene], for which, in [1] (setting [5]), the pEC50 was 5.07. Also, in data set [1], the “rescue” value was “significant rescue” and the “protection” value is on record as “prevented DOX cardiomyopathy”.

Regarding `O=C(NCCCOc1c2ccoc2cc2oc(=O)ccc12)Oc1ccccc1` [Example 6], the pEC50 is 7.48 in [1] (setting [4]) and less than 4.30 with HL-1 cardiomyocytes.

Turning to `CC(C)(C)OC(=O)N1CC(COc2c3ccoc3cc3oc(=O)ccc23)C1` [Example 4, tert-butyl 3-(((7-oxo-7H-furo[3,2-g]chromen-4-yl)oxy)methyl)azetidine-1-carboxylate], the pEC50 is 8.00 in data set [1] (setting [4]) and less than 4.30 in the data set with HL-1 cardiomyocytes.

Turning to `c1cc2ccc3cccc4ccc(c1)c2c34` [pyrene], the pEC50 in [1] (setting [5]) is 5.43. In addition, in data set [1], the “rescue” value is reported as “significant rescue” and the “protection” value was “prevented DOX cardiomyopathy”.

With `COC(=O)c1csc(C(=O)c2c[nH]c3ccccc23)n1` [ITE, methyl 2-(1H-indole-3-carbonyl)-1,3-thiazole-4-carboxylate], the “toxicity to zebrafish embryos without doxorubicin” value in the data set on zebrafish embryos was “not toxic”.

(Values after patent publication US11396516B2, “Tricyclic compounds as Cyp1 inhibitors” (The General Hospital Corporation, priority 2017, dated 2022).)
